Experimental data reported in ChEMBL document CHEMBL3091300, “Truncated and constrained helical analogs of antimicrobial esculentin-2EM” (Bioorg Med Chem Lett, 2013).
In brackets after ≈: the same amount, converted by molar mass. *1 amine or outer side, *2 acyl side, *3 side chain or, on linkers, in order; H or OH if unused. Where a SMILES comes first, the peptide text is derived from it. Bridges are numbered along the chain shown (N, C = ends). [ ]: non-standard residue; d: D form. Nle(6-ylidene) = O=C([C@H](CCCC=[*:3])N[*:1])[*:2]; S5 = C=CCCC[C@](C)(N)C(=O)O

Columns and labels:
[1] = system: Klebsiella pneumoniae; assay: Antibacterial activity against Klebsiella pneumoniae ATCC 10031 assessed as growth inhibition after 24 hrs by broth microdilution method; assay type: functional; details: ATCC 10031, 24 h
[2] = system: Shigella dysenteriae; assay: Antibacterial activity against Shigella dysenteriae ATCC 9752 assessed as growth inhibition after 24 hrs by broth microdilution method; assay type: functional; details: ATCC 9752, 24 h
[3] = system: Escherichia coli; assay: Antibacterial activity against Escherichia coli ATCC 25922 assessed as growth inhibition after 24 hrs by broth microdilution method; assay type: functional; details: ATCC 25922, 24 h
[4] = system: Staphylococcus epidermidis; assay: Antibacterial activity against Staphylococcus epidermidis ATCC 12228 assessed as growth inhibition after 24 hrs by broth microdilution method; assay type: functional; details: ATCC 12228, 24 h
[5] = system: Proteus mirabilis; assay: Antibacterial activity against Proteus mirabilis ATCC 25933 assessed as growth inhibition after 24 hrs by broth microdilution method; assay type: functional; details: ATCC 25933, 24 h
[6] = system: Bacillus spizizenii; assay: Antibacterial activity against Bacillus subtilis ATCC 6633 assessed as growth inhibition after 24 hrs by broth microdilution method; assay type: functional; details: ATCC 6633, 24 h
[7] = Drug metabolism assessed as trypsin (unknown origin)-mediated digestion by measuring compound remaining at 0.09 uM after 60 mins by HPLC analysis; assay type: ADME; details: human, read-out: Stability
[8] = system: Salmonella typhimurium; assay: Antibacterial activity against Salmonella typhimurium ATCC 14028 assessed as growth inhibition after 24 hrs by broth microdilution method; assay type: functional, Salmonella enterica subsp. enterica serovar Typhimurium; details: Salmonella enterica, ATCC 14028, 24 h
[9] = system: Pseudomonas aeruginosa; assay: Antibacterial activity against Pseudomonas aeruginosa ATCC 27853 assessed as growth inhibition after 24 hrs by broth microdilution method; assay type: functional; details: ATCC 27853, 24 h
[10] = Drug metabolism assessed as trypsin (unknown origin)-mediated digestion by measuring half life at 0.09 uM by HPLC analysis; assay type: ADME; details: human
[11] = system: Staphylococcus aureus; assay: Antibacterial activity against Staphylococcus aureus ATCC 6538p assessed as growth inhibition after 24 hrs by broth microdilution method; assay type: functional
[12] = Drug metabolism assessed as trypsin (unknown origin)-mediated digestion at 0.09 uM after 15 mins by HPLC analysis; assay type: ADME; details: human, 0.25 h

Row | Molecule | MIC [1] [µg/mL] | MIC [2] [µg/mL] | MIC [3] [µg/mL] | MIC [4] [µg/mL] | MIC [5] [µg/mL] | MIC [6] [µg/mL] | remaining at 1 h, 0.09 µM [7] [%] | MIC [8] [µg/mL] | MIC [9] [µg/mL] | half-life at 0.09 µM [10] [min] | MIC [11] [µg/mL] | Drug metabolism [12]
1 | CC(=O)N[C@H](C(=O)N[C@@H](CC(C)C)C(=O)N[C@@H](CCCCN)C(=O)N[C@@H](CCC(N)=O)C(=O)N[C@@H](Cc1c[nH]c2ccccc12)C(=O)N[C@@]1(C)CCC/C=C\CCC[C@@H](C(=O)N[C@@H](CCCCN)C(=O)N[C@@H](CC(=O)O)C(=O)N[C@@H](CC(C)C)C(=O)N[C@H](C(=O)N[C@@H](CCCCN)C(N)=O)C(C)C)NC(=O)[C@H](C(C)C)NC(=O)CNC(=O)[C@H](CCCCN)NC1=O)[C@@H](C)O (Ac-TLKQW[S5]KGV[Nle(6-ylidene)]KDLVK-NH2; staple (Z) 6-10) | 50 (≈ 27.5 µM) | 50 (≈ 27.5 µM) | 100 (≈ 54.9 µM) | 100 (≈ 54.9 µM) | > 200 | 6.25 (≈ 3.43 µM) | > 90 | > 200 | > 200 | 71 | 6.25 (≈ 3.43 µM) | –
2 | Ac-GILDTLKQFAKGVGKWLVKGAAQ-NH2 | > 200 | > 200 | > 200 | > 200 | > 200 | 50 | – | > 200 | > 200 | – | 100 | Active
3 | CC(=O)N[C@H](C(=O)N[C@@H](CC(C)C)C(=O)N[C@@H](CCCCN)C(=O)N[C@@H](CCC(N)=O)C(=O)N[C@@H](Cc1ccccc1)C(=O)N[C@@]1(C)CCC/C=C\CCC[C@@H](C(=O)N[C@@H](CCCCN)C(=O)N[C@@H](CC(=O)O)C(=O)N[C@@H](CC(C)C)C(=O)N[C@H](C(=O)N[C@@H](CCCCN)C(N)=O)C(C)C)NC(=O)[C@H](Cc2c[nH]c3ccccc23)NC(=O)CNC(=O)[C@H](CCCCN)NC1=O)[C@@H](C)O (Ac-TLKQF[S5]KGW[Nle(6-ylidene)]KDLVK-NH2; staple (Z) 6-10) | 50 (≈ 26.8 µM) | 50 (≈ 26.8 µM) | 100 (≈ 53.5 µM) | > 200 | > 200 | 6.25 (≈ 3.35 µM) | 75 | > 200 | 200 (≈ 107 µM) | 37 | 6.25 (≈ 3.35 µM) | –
4 | CC(=O)N[C@H](C(=O)N[C@@H](CC(C)C)C(=O)N[C@@H](CCCCN)C(=O)N[C@@H](CCC(N)=O)C(=O)N[C@@H](Cc1ccccc1)C(=O)N[C@@]1(C)CCC/C=C\CCC[C@@H](C(=O)N[C@@H](CCCCN)C(=O)N[C@@H](Cc2c[nH]c3ccccc23)C(=O)N[C@@H](CC(C)C)C(=O)N[C@H](C(=O)N[C@@H](CCCCN)C(N)=O)C(C)C)NC(=O)[C@H](C(C)C)NC(=O)CNC(=O)[C@H](CCCCN)NC1=O)[C@@H](C)O (Ac-TLKQF[S5]KGV[Nle(6-ylidene)]KWLVK-NH2; staple (Z) 6-10) | > 200 | > 200 | > 200 | > 200 | > 200 | 3.13 (≈ 1.69 µM) | > 90 | > 200 | > 200 | 72 | 3.13 (≈ 1.69 µM) | –
5 | Ac-TLKQFAKGVGKWLVK-NH2 | > 200 | > 200 | 200 | > 200 | > 200 | 200 | – | > 200 | > 200 | – | 100 | Active
